Common to all, as to format: functional
Assay [1] relates to Mycobacterium tuberculosis. In words: Antimycobacterial activity against patient-derived multidrug-resistant Mycobacterium tuberculosis 2712 measured after 7 days by resazurin dye-based assay. To be noted: Mycobacterium tuberculosis, 2712, 168 h. (In general: Alamar Blue is a resazurin reagent that responds to reducing activity.)
Assay [2] relates to Mycobacterium tuberculosis. In words: Antimycobacterial activity against patient-derived multidrug-resistant Mycobacterium tuberculosis 5023 measured after 7 days by resazurin dye-based assay. To be noted: Mycobacterium tuberculosis, 5023, 168 h.
Assay [3] has as its system Mycobacterium tuberculosis. In words: Antimycobacterial activity against patient-derived multidrug-resistant Mycobacterium tuberculosis 7106 measured after 7 days by resazurin dye-based assay. To be noted: Mycobacterium tuberculosis, 7106, 168 h.

The structures appear in SMILES notation. In brackets after ≈: the same amount, converted by molar mass.

By MIC is commonly meant the lowest concentration that inhibits growth of the organism. In the case of `Cc1ccc(CC2CCOC3(CCN(C(=O)c4ccc([N+](=O)[O-])o4)CC3)C2)cc1` (stereo unspecified), the MIC in assay [1] was 100 mg/L (≈ 251 µM); in assay [2], 3.1 mg/L (≈ 7.78 µM); in assay [3], 100 mg/L (≈ 251 µM).
In the case of `O=C(c1ccc([N+](=O)[O-])o1)N1CCC2(CC1)CC(Cc1nc(-c3cccnc3)no1)CCO2` (stereo unspecified), the MIC was 1.6 mg/L (≈ 3.53 µM) in assay [1], 3.1 mg/L (≈ 6.84 µM) in assay [2] and 6.2 mg/L (≈ 13.7 µM) in assay [3].
The matching figures for `COCCc1noc(CC2CCOC3(CCN(C(=O)c4ccc([N+](=O)[O-])o4)CC3)C2)n1` (stereo unspecified): 12.5 mg/L (≈ 28.8 µM), 12.5 mg/L (≈ 28.8 µM) and 25 mg/L (≈ 57.5 µM).
In the same order, the values of `O=C(c1ccc([N+](=O)[O-])o1)N1CCC2(CCCCO2)CC1` are 6.2 mg/L (≈ 21.1 µM), 25 mg/L (≈ 84.9 µM) and 25 mg/L (≈ 84.9 µM).
The matching figures for `O=C(c1ccc([N+](=O)[O-])o1)N1CCC2(CC1)CC(OCc1ccc(F)cc1)CCO2` (stereo unspecified): 25 mg/L (≈ 59.7 µM), 6.2 mg/L (≈ 14.8 µM) and 6.2 mg/L (≈ 14.8 µM).
With `O=C(c1ccc([N+](=O)[O-])o1)N1CCC2(CC1)CC(Cc1nc(C3CC3)no1)CCO2` (stereo unspecified), the minimum inhibitory concentration (MIC) in assay [1] was 3.1 mg/L (≈ 7.44 µM); in assay [2], 12.5 mg/L (≈ 30 µM); in assay [3], 6.2 mg/L (≈ 14.9 µM).
As for `COc1ccc(CC2CCOC3(CCN(C(=O)c4ccc([N+](=O)[O-])o4)CC3)C2)cc1` (stereo unspecified), the MIC is 6.2 mg/L (≈ 15 µM) in assay [1], 3.1 mg/L (≈ 7.48 µM) in assay [2] and 3.1 mg/L (≈ 7.48 µM) in assay [3].

(Values after ChEMBL document CHEMBL4316589, “Attachment of a 5-nitrofuroyl moiety to spirocyclic piperidines produces non-toxic nitrofurans that are efficacious in vitro against multidrug-resistant Mycobacterium tuberculosis” (Eur J Med Chem, 2019).)
